In patent publication US9415070B2, “Methods and compositions for localized delivery of agents to virally infected cells and tissues” (Massachusetts Institute of Technology, priority 2012, dated 2016):

B1: perforin: pore-forming protein, 67-kilodalton multidomain protein (protein, UniProt P14222 22-555, looked up)
Perforin-1: PCHTAARSECKRSHKFVPGAWLAGEGVDVTSLRRSGSFPVDTQRFLRPDGTCTLCENALQEGTLQRLPLALTNWRAQGSGCQRHVTRAKVSSTEAVARDAARSIRNDWKVGLDVTPKPTSNVHVSVAGSHSQAANFAAQKTHQDQYSFSTDTVECRFYSFHVVHTPPLHPDFKRALGDLPHHFNASTQPAYLRLISNYGTHFIRAVELGGRISALTALRTCELALEGLTDNEVEDCLTVEAQVNIGIHGSISAEAKACEEKKKKHKMTASFHQTYRERHSEVVGGHHTSINDLLFGIQAGPEQYSAWVNSLPGSPGLVDYTLEPLHVLLDSQDPRREALRRALSQYLTDRARWRDCSRPCPPGRQKSPRDPCQCVCHGSAVTTQDCCPRQRGLAQLEVTFIQAWGLWGDWFTATDAYVKLFFGGQELRTSTVWDNNNPIWSVRLDFGDVLLATGGPLRLQVWDQDSGRDDDLLGTCDQAPKSGSHEVRCNLNHGHLKFRYHARCLPHLGGGTCLDYVPQMLLGEPPGNRSGAVW

Experiments:
[1] = test system: infected target cells; assay: in vitro eradication assay, HIV-specific T cells co-cultured with infected target cells; format: cell-based; details: in the presence of the latency reversing drug; FIG. 4
From the text: The in vitro cell eradication assay presented in this Example was directed to determining if T pharmacytes can induce expression of HIV expression in latently infected cells and kill those cells. HIV-specific T cells and Cytomegalovirus (CMV)-specific T cells were co-cultured with infected target cells (and mock-infected target cells) without the addition of any exogenous cytokines.

[2] = test system: B lymphoblastoid cell line (BLCL); assay: lysis of BLCL by recombinant perforin (FSC/SSC flow cytometry); format: cell-based; details: FIG. 12A
Protocol: The next series of experiments were designed to test the effects of different concentrations of recombinant perforin on lysis of a B lymphoblastoid cell line (BLCL). […] The cell populations with FSC/SSC characteristics of viable BLCL have been gated. 1 nM perforin appeared to be sufficient for clear cell lysis. To investigate whether perforin release from T cells is sufficient to trigger release of payload from nanoparticles conjugated to T cells, ICMV nanoparticles encapsulating Alexa-647-labeled OVA were treated with 1 nM perforin for 16 hours, or maintained as a no-treatment control. As a positive control for complete lysis, NPs were treated with 2% Triton X-100. Fluorescence was quantified at 647 nm absorbance and 695 nm emission.

Molecule	response of HIV-specific T cells to infected target cells [1]	perforin concentration sufficient for clear cell lysis [2] [nM]
IL-15: cytokine used as latency reversing drug	specifically respond to these infected target cells only in the presence of latency reversing drugs	–
B1	–	1
